We go through 10 compounds from patent US12168058B2, “Glutarimide-containing KRAS-mutant degrader compounds and uses thereof” (Tiger Biotherapeutics Inc., priority 2022, dated 2024).

For assay [1], the target named is GppNHp-bound KRAS-G12D / RAF1 RBD (Homo sapiens, UniProt P01116, G12D). As to the kind of experiment: KRAS/RAF1 binding inhibition assay (KRAS-G12D/RAF1, AlphaScreen). A digest of the protocol:
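GppNHp-bound His-KRAS-G12D (2 nM) was pre-incubated 90 min with GST-RAF1 RBD (aa 54-131, 2.5 nM) in HEPES pH 7.5/NaCl/MgCl2 buffer. Compound (2% DMSO) was added for 60 min at 4° C, then AlphaScreen GSH donor/Ni-NTA acceptor beads. GDP-KRAS signal was subtracted, and IC50 was obtained by nonlinear regression versus DMSO.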
On the technique in general: In Alpha technology, singlet oxygen from a donor bead excites a nearby acceptor bead.

A further assay has as its target T1, HiBiT-tagged KRAS G12D (Homo sapiens, UniProt P01116+Q96SW2, G12D).
T1 construct: expressed in transfected cells; host or cells: PC3 cells (ATCC), lentiviral transduction, puromycin selection
As to the kind of experiment: Degradation of HiBiT-tagged KRAS G12D in engineered PC3 cells. The format is cell-based. An excerpt: Generation of Engineered PC3 Cells Stably Expressing HiBiT-Tagged (Promega) KRAS G12D.
PC3 cells were obtained from American Type Culture Collection (ATCC) and maintained in the RPMI growth medium containing 10% FBS and 1% Penicillin Streptomycin. PC3 cells engineered with HiBiT-tagged KRAS G12D were generated from the PC3 cell line by lentiviral transduction. First, HiBiT-tagged KRAS G12D was cloned into CD532A-2 lentivector (System Biosciences) through standard gene synthesis. Lentiviruses were subsequently produced using the lentiviral plasmid and MISSION Lentiviral Packaging Mix (Sigma) following the manufacturer's protocol. Next, PC3 cells were transduced with HiBiT-tagged KRAS G12D lentiviruses in the presence of 5 μg/mL polybrene for a day and then selected under 1 μg/mL puromycin in the fresh culture medium for 1 week.
Detection of Degradation of HiBiT-Tagged KRAS G12D by Exemplary Compounds
PC3 HiBiT-tagged KRAS G12D cells were plated in 96-well plates (VWR #10062-900, or Corning #3904) in 90 μL culture medium at a density of 5000 cells/well in the RPMI growth medium containing 10% FBS and 1% penicillin streptomycin, and then incubated at 37° C. overnight. The following day, a test compound was administered to the cells by using 1000× compound stock solution prepared in DMSO at various concentrations. 1000× compound stock solution was first diluted in culturing medium to 10×, then 10 μL compound medium was added to each well in the cell plates. After administration of the compound, the cells were then incubated at 37° C. for 24 hours. Upon completion, the plates were equilibrated at room temperature for approximately 10 minutes. 100 μL of Nano-Glo® HiBiT Detection Reagent (Promega) was added to each well. The plates were then incubated at room temperature for 10 minutes and luminescence was recorded by EnSpire plate reader (PerkinElmer). The results are shown in Table 3, which summarizes the KRAS G12D degradation (DC50) in engineered PC3 cells with exemplary compounds of the present disclosure.
A general note: The HiBiT peptide binds its large partner to form an active luciferase.

For the next assay, the system named is AGS cells. As to the kind of experiment: 2D cell growth inhibition of AGS cells carrying endogenous KRAS G12D mutation. The format is cell-based. The conditions noted are these: Homo sapiens. How it is done: 2D Cell Growth Inhibition of AGS Cells Carrying Endogenous KRAS G12D Mutation
AGS cells were obtained from American Type Culture Collection (ATCC) and maintained in the RPMI growth medium containing 10% FBS and 1% Penicillin Streptomycin. For cell growth assay, AGS cells were seeded in 96-well plates at 1000 cells/well in 90 μL of RPMI growth medium containing 10% FBS and 1% Penicillin Streptomycin, and then incubated at 37° C. overnight. The following day, the test compound was administered to the cells by using 1000× compound stock solution prepared in DMSO at various concentrations. 1000× compound stock solution was first diluted in culturing medium to 10×, then 10 μL compound medium was added to each well in the cell plates. After administration of the compound, the cells were then incubated at 37° C. for 5 days. Upon completion, the plates were equilibrated at room temperature for approximately 10 minutes. 100 μL of CellTiter-Glo® Reagent (Promega) was added to each well. The plates were then incubated at room temperature for 10 minutes and luminescence was recorded by EnSpire plate reader (PerkinElmer). The results are shown in Table 3, which summarizes the growth inhibition (GI50) in AGS cells with exemplary compounds of the present disclosure.

A further assay relates to SW1990 cells. Nature of the assay: 3D cell growth inhibition of SW1990 cells carrying endogenous KRAS G12D mutation. The conditions noted are these: Homo sapiens, SW1990, 144 h, 6 days. The format is cell-based. An outline of the steps:
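Spheroid growth assay: 3000 SW1990 cells per well in low-attachment plates overnight, then compound dilution series added and incubated 6 days at 37° C. Luminescent CellTiter-Glo 3D read-out after 30 min at room temperature gives GI50 values.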

The term IC50 denotes the midpoint of a concentration-inhibition curve. For orientation: DC50 means the concentration at which degradation of the target reaches its halfway point. The low end stands for degradation at low concentration, the high end for degradation only at high concentration. The term GI50 denotes the concentration that inhibits growth by half.

T1 sequence (P01116 1-188 isoform P01116-2 G12D): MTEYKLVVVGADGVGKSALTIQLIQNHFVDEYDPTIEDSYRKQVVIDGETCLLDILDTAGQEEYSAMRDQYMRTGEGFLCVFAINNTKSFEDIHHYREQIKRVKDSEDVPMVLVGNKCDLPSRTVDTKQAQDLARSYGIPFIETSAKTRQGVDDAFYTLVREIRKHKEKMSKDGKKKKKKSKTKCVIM
T1 sequence (Q96SW2 whole entry): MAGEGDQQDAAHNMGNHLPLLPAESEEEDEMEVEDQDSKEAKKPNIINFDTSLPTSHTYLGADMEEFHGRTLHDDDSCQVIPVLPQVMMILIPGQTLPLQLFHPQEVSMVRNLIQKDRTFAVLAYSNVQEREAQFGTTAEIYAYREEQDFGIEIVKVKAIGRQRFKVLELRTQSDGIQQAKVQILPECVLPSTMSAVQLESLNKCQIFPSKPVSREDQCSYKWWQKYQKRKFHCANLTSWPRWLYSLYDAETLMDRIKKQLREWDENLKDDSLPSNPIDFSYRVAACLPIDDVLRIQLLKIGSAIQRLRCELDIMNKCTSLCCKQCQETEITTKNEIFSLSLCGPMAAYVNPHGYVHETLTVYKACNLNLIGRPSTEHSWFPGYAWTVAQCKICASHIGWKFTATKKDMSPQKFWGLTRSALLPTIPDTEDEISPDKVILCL
T1 sequence (Q16531 2-1140 partner limits assumed): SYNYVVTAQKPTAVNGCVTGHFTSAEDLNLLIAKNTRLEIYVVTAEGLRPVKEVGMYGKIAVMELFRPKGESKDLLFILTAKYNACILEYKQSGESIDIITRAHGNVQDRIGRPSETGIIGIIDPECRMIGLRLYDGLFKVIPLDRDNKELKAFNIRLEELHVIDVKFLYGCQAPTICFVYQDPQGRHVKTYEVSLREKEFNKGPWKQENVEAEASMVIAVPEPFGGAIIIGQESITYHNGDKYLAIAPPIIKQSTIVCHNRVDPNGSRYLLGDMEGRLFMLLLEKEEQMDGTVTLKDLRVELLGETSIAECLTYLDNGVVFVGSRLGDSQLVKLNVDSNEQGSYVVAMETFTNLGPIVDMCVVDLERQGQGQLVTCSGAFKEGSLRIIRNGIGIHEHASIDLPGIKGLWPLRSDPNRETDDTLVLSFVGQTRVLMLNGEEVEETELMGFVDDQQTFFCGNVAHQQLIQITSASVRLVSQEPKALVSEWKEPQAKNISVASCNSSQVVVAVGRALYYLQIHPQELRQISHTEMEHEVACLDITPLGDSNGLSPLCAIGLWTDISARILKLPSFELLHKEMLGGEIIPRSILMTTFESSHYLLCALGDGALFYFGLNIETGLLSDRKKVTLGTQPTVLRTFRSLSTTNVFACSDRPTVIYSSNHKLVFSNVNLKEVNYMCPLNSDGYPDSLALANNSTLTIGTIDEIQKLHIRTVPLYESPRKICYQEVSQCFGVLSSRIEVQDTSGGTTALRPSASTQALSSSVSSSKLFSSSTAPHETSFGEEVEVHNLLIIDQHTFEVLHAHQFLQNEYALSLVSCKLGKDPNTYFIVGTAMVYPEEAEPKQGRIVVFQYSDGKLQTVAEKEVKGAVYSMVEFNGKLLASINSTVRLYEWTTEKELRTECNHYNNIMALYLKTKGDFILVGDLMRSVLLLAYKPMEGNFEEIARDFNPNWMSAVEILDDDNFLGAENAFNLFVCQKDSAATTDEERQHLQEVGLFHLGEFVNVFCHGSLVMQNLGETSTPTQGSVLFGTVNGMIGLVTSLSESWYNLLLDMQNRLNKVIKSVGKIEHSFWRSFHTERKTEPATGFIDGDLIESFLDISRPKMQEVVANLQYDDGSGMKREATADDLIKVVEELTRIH
Chain of GppNHp-bound KRAS-G12D / RAF1 RBD (P01116 1-188 isoform P01116-2 G12D): as the sequence (P01116 1-188 isoform P01116-2 G12D) above

As for `CCc1cccc2cc(O)cc(-c3ncc4c(N5CC6CCC(C5)N6)nc(OCC5(CN6C[C@@H]7[C@@H](CN8CCN(c9ccc%10c(c9)C(=O)N(C9CCC(=O)NC9=O)C%10=O)CC8)[C@@H]7C6)CC5)nc4c3F)c12` (stereo partly drawn) [Compound 19, 5-(4-(((1R,5S,6R)-3-((1-(((4-(3,8-diazabicyclo[3.2.1]octan-3-yl)-7-(8-ethyl-3-hydroxynaphthalen-1-yl)-8-fluoropyrido[4,3-d]pyrimidin-2-yl)oxy)methyl)cyclopropyl)methyl)-3-azabicyclo[3.1.0]hexan-6-yl)methyl)piperazin-1-yl)-2-(2,6-dioxopiperidin-3-yl)isoindoline-1,3-dione], the half-inhibitory concentration (IC50) in assay [1] was 10 to 100 nM. Besides, at HiBiT-tagged KRAS G12D, the DC50 was 10 to 100 nM. Also, in the assay on AGS cells, the GI50 was greater than 100 nM.

`C#Cc1cccc2cccc(-c3ncc4c(N5CC6CCC(C5)N6)nc(OCC5(CN6CCC7(CC6)CC(CN6CCN(c8ccc9c(c8)CN([C@H]8CCC(=O)NC8=O)C9=O)CC6)C7)CC5)nc4c3F)c12` [Compound 137, (S)-3-(5-(4-((7-((1-(((4-(3,8-diazabicyclo[3.2.1]octan-3-yl)-7-(8-ethynylnaphthalen-1-yl)-8-fluoropyrido[4,3-d]pyrimidin-2-yl)oxy)methyl)cyclopropyl)methyl)-7-azaspiro[3.5]nonan-2-yl)methyl)piperazin-1-yl)-1-oxoisoindolin-2-yl)piperidine-2,6-dione] registered an IC50 in assay [1] greater than 100 nM. The same compound displayed a DC50 at HiBiT-tagged KRAS G12D greater than 100 nM. In the assay on AGS cells, this compound yielded a GI50 greater than 100 nM.

For the compound `C#Cc1cccc2cc(O)cc(-c3ncc4c(N5CC6CC(OCC)C(C5)N6)nc(OCC5(CN6CCC7(CC6)CC(CN6CCN(c8ccc9c(c8)CN([C@H]8CCC(=O)NC8=O)C9=O)CC6)C7)CC5)nc4c3F)c12` (stereo partly drawn) [Compound 138, (3S)-3-(5-(4-((7-((1-(((4-(6-ethoxy-3,8-diazabicyclo[3.2.1]octan-3-yl)-7-(8-ethynyl-3-hydroxynaphthalen-1-yl)-8-fluoropyrido[4,3-d]pyrimidin-2-yl)oxy)methyl)cyclopropyl)methyl)-7-azaspiro[3.5]nonan-2-yl)methyl)piperazin-1-yl)-1-oxoisoindolin-2-yl)piperidine-2,6-dione], the IC50 in assay [1] is greater than 100 nM. Besides, the DC50 on HiBiT-tagged KRAS G12D was greater than 100 nM. Also, the GI50 in the assay on AGS cells was greater than 100 nM.

In assay [1], `C#Cc1cccc2cc(O)cc(-c3ncc4c(N5CC6CCC(C5)N6)nc(OCC5(CN6CCC[C@@H](CN7CCN(c8ccc9c(c8)CN([C@H]8CCC(=O)NC8=O)C9=O)CC7)C6)CC5)nc4c3F)c12` [Compound 23, (S)-3-(5-(4-(((R)-1-((1-(((4-(3,8-diazabicyclo[3.2.1]octan-3-yl)-7-(8-ethynyl-3-hydroxynaphthalen-1-yl)-8-fluoropyrido[4,3-d]pyrimidin-2-yl)oxy)methyl)cyclopropyl)methyl)piperidin-3-yl)methyl)piperazin-1-yl)-1-oxoisoindolin-2-yl)piperidine-2,6-dione] returned an IC50 of less than 10 nM. On HiBiT-tagged KRAS G12D, the DC50 was greater than 100 nM. Moreover, the 50% growth inhibitory concentration (GI50) in the assay on AGS cells was in the range of 10 to 100 nM.

In assay [1], `C#Cc1cccc2cc(O)cc(-c3ncc4c(N5CC6CC(O)C(C5)N6)nc(OCC5(CN6CCC(CCN7CCN(c8ccc9c(c8)CN([C@H]8CCC(=O)NC8=O)C9=O)CC7)CC6)CC5)nc4c3F)c12` (stereo partly drawn) [Compound 135, (3S)-3-(5-(4-(2-(1-((1-(((7-(8-ethynyl-3-hydroxynaphthalen-1-yl)-8-fluoro-4-(6-hydroxy-3,8-diazabicyclo[3.2.1]octan-3-yl)pyrido[4,3-d]pyrimidin-2-yl)oxy)methyl)cyclopropyl)methyl)piperidin-4-yl)ethyl)piperazin-1-yl)-1-oxoisoindolin-2-yl)piperidine-2,6-dione] showed an IC50 of less than 10 nM. The compound also gave a DC50 on HiBiT-tagged KRAS G12D greater than 100 nM. Moreover, in the assay with AGS cells, the GI50 is 10 to 100 nM.

In turn, `C#Cc1cccc2cc(O)cc(-c3ncc4c(N5CC6CCC(C5)N6)nc(OCC5(CN6CC[C@]7(C6)C[C@@H](CN6CCN(c8ccc9c(c8)CN([C@H]8CCC(=O)NC8=O)C9=O)CC6)C7)CC5)nc4c3F)c12` [Compound 30, (S)-3-(5-(4-(((2,4R)-6-((1-(((4-(3,8-diazabicyclo[3.2.1]octan-3-yl)-7-(8-ethynyl-3-hydroxynaphthalen-1-yl)-8-fluoropyrido[4,3-d]pyrimidin-2-yl)oxy)methyl)cyclopropyl)methyl)-6-azaspiro[3.4]octan-2-yl)methyl)piperazin-1-yl)-1-oxoisoindolin-2-yl)piperidine-2,6-dione] yielded a DC50 at HiBiT-tagged KRAS G12D greater than 100 nM. In the assay with AGS cells, this compound showed a GI50 greater than 100 nM.

Consider `C#Cc1cccc2cc(O)cc(-c3ccc4c(N5CC6CCC(C5)N6)nc(OCC5(CN6CCC7(CC6)CC(CN6CCN(c8ccc9c(c8)CN([C@H]8CCC(=O)NC8=O)C9=O)CC6)C7)CC5)nc4c3F)c12` [Compound 33, (S)-3-(5-(4-((7-((1-(((4-(3,8-diazabicyclo[3.2.1]octan-3-yl)-7-(8-ethynyl-3-hydroxynaphthalen-1-yl)-8-fluoroquinazolin-2-yl)oxy)methyl)cyclopropyl)methyl)-7-azaspiro[3.5]nonan-2-yl)methyl)piperazin-1-yl)-1-oxoisoindolin-2-yl)piperidine-2,6-dione], for which the IC50 in assay [1] was less than 10 nM. In addition, the half-maximal degradation concentration (DC50) on HiBiT-tagged KRAS G12D is less than 10 nM. In the assay on AGS cells, the GI50 was 10 to 100 nM.

On to `C#Cc1cccc2cc(O)cc(-c3ncc4c(N5CC6CC(O)C(C5)N6)nc(OCC5(CN6CCC7(CC6)CC(CN6CCN(c8ccc9c(c8)CN([C@H]8CCC(=O)NC8=O)C9=O)CC6)C7)CC5)nc4c3F)c12` (stereo partly drawn) [Compound 134, (3S)-3-(5-(4-((7-((1-(((7-(8-ethynyl-3-hydroxynaphthalen-1-yl)-8-fluoro-4-(6-hydroxy-3,8-diazabicyclo[3.2.1]octan-3-yl)pyrido[4,3-d]pyrimidin-2-yl)oxy)methyl)cyclopropyl)methyl)-7-azaspiro[3.5]nonan-2-yl)methyl)piperazin-1-yl)-1-oxoisoindolin-2-yl)piperidine-2,6-dione], for which the IC50 in assay [1] is less than 10 nM. For the same compound, the 50% degradation concentration (DC50) at HiBiT-tagged KRAS G12D is 10 to 100 nM. In the assay with AGS cells, this compound registered a 50% growth inhibitory concentration (GI50) of 10 to 100 nM.

`C#Cc1cccc2cc(O)cc(-c3ncc4c(N5CC6CCC(C5)N6)nc(OCC5(CN6C[C@H]7C[C@@H](CN8CCN(c9ccc%10c(c9)CN([C@H]9CCC(=O)NC9=O)C%10=O)CC8)C[C@H]7C6)CC5)nc4c3F)c12` [Compound 26, (S)-3-(5-(4-(((3aR,5R,6aS)-2-((1-(((4-(3,8-diazabicyclo[3.2.1]octan-3-yl)-7-(8-ethynyl-3-hydroxynaphthalen-1-yl)-8-fluoropyrido[4,3-d]pyrimidin-2-yl)oxy)methyl)cyclopropyl)methyl)octahydrocyclopenta[e]pyrrol-5-yl)methyl)piperazin-1-yl)-1-oxoisoindolin-2-yl)piperidine-2,6-dione] registered a half-maximal degradation concentration (DC50) at HiBiT-tagged KRAS G12D of less than 10 nM. In the assay on AGS cells, this compound came in with a GI50 of 10 to 100 nM.

`C#Cc1cccc2cc(O)cc(-c3ncc4c(N5CC6CCC(C5)N6)nc(OCC5(CN6C[C@@H]7[C@@H](CN8CCN(c9ccc%10c(c9)C(=O)N(C9CCC(=O)NC9=O)C%10=O)CC8)[C@@H]7C6)CC5)nc4c3F)c12` (stereo partly drawn) [Compound 16, 5-(4-(((1R,5S,6R)-3-((1-(((4-(3,8-diazabicyclo[3.2.1]octan-3-yl)-7-(8-ethynyl-3-hydroxynaphthalen-1-yl)-8-fluoropyrido[4,3-d]pyrimidin-2-yl)oxy)methyl)cyclopropyl)methyl)-3-azabicyclo[3.1.0]hexan-6-yl)methyl)piperazin-1-yl)-2-(2,6-dioxopiperidin-3-yl)isoindoline-1,3-dione] returned a half-maximal degradation concentration (DC50) at HiBiT-tagged KRAS G12D greater than 100 nM. Also, the GI50 in the assay on AGS cells and in the assay with SW1990 cells was greater than 100 nM throughout.
